The values that follow come from publication PMC3795843 (Journal of molecular biology, 2013).

Test [1] addresses Ded1p (Saccharomyces cerevisiae, UniProt P06634). As to the kind of experiment: fluorescence competition with mantADP. The format is binding. As to conditions: no RNA; pH 8.0, 50 mM NaCl, 0.5 mM excess Mg2+, 19 °C.
The target in test [2] is T1, Sub2p (Saccharomyces cerevisiae, UniProt Q07478).
T1 sequence (Q07478 2-446): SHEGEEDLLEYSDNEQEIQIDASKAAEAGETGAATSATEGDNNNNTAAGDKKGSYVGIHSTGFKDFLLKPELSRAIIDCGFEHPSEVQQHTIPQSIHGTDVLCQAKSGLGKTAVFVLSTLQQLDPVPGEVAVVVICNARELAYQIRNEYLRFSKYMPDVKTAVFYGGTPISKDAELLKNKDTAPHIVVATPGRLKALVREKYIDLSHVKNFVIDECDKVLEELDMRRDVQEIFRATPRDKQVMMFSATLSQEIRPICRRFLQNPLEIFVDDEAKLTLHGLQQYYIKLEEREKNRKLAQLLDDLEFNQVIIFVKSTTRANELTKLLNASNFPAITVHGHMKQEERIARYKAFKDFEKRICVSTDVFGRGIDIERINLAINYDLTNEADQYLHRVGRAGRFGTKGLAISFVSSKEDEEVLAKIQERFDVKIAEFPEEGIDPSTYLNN
As to the kind of experiment: inhibition of RNA duplex unwinding, native PAGE. As to conditions: 0.5 mM nucleotide, 0.5 mM ATP, 10 mM Tris pH 7.0, 50 mM KCl, 30 °C. In kind it is biochemical.

The target of test [3] is T2, Dbp5p (Saccharomyces cerevisiae, UniProt P20449).
T2 sequence (P20449 1-482): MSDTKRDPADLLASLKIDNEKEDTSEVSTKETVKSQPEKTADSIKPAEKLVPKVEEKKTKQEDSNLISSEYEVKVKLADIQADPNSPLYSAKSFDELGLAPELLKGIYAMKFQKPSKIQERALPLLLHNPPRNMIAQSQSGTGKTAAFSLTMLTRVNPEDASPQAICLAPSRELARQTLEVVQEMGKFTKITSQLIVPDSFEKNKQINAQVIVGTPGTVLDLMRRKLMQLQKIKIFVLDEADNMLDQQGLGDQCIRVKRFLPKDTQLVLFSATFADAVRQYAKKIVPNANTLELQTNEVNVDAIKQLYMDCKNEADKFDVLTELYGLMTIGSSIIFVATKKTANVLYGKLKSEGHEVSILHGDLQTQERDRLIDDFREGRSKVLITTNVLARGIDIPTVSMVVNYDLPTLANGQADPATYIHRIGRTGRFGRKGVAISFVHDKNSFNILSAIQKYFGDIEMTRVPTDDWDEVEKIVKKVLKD
Briefly: inhibition of RNA duplex unwinding, native PAGE. The format is biochemical. As to conditions: 0.5 mM nucleotide, 0.5 mM ATP, 40 mM Hepes pH 7.5, 30 °C.

SMILES strings stand for the structures.

Sequence of Ded1p (P06634 2-604): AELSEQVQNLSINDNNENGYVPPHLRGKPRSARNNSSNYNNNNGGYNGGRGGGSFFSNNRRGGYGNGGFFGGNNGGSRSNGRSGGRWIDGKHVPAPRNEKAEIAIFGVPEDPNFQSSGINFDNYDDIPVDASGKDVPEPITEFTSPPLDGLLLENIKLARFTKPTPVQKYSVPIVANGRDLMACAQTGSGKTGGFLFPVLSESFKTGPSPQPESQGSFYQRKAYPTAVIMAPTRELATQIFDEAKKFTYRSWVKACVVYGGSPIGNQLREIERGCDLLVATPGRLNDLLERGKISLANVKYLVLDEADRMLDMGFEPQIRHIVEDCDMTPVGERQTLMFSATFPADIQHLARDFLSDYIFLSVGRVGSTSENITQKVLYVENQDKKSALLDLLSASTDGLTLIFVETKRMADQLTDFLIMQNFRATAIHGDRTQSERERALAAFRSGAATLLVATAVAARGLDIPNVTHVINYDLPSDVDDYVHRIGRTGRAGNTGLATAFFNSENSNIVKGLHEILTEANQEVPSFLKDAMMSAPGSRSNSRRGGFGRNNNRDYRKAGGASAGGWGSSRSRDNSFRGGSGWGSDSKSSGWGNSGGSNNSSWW

As to `Nc1ncnc2c1ncn2[C@@H]1O[C@H](COP(=O)(O)OP(=O)(O)OP(=O)(O)O)[C@@H](O)[C@H]1O` [ATP], the K1/2 entry in test [1] was “Binding of ATP (red), ADP (blue), and AMP (green) to Ded1p in the absence of RNA”.
`Nc1ncnc2c1ncn2[C@@H]1O[C@H](COP(=O)(O)OP(=O)(O)O)[C@@H](O)[C@H]1O` [ADP]: the kunw result was “Sub2p and Dbp5p showed only significant inhibition by ADP” in test [2]; “Sub2p and Dbp5p showed only significant inhibition by ADP” in test [3].
